Laboratory results: patent US5847193A, “Labelled compound” (priority 1995, dated 1998)

Experiments:
[1] = tested on: human or rat gliomacyte; settings: cited from earlier work
[2] = tested on: rat glioma; experiment: Uptake of ^11 C-labelled L-DABA into rat glioma cells in culture; type: cell-based; settings: medium with amino acid content close to the biological one, control phosphate-buffered saline, FIG. 7
Description: Biological applicability of the ^11 C-labelled L-DABA obtained in Example 3 was evaluated. The relationship between concentration of the L-DABA added to culture medium of rat glioma and uptake of radioactivity into the glioma cells in a given duration was investigated in a medium having an amino acid content close to the biological one, and for control, in a physiological saline buffered with phosphoric acid.

[3] = Sterility and exothermic substance check of the filtered ^11 C-labelled glutamic acid product; settings: after sterilized 0.2 μm filter
Description: NaOH of 2.5M was added to a reaction solution containing the γ-cyano-α-aminobutyric acid of which cyano group carbon being labelled with positron nuclide ^11 C, as obtained in Example 6, and temperature of the mixture was raised to 135° C. After the lapse of 15 minutes, the reaction solution was mixed with 8 ml 50 mM NaH2 PO4, and the resultant mixture was passed through an anion exchange resin (800 mg AGI-x8 200-400 mesh hydroxide form). After washing with 50 mM NaH2 PO4 in an amount of 6 ml, the reaction product was eluted with 150 mM NaH2 PO4 (pH adjusted to 2.8 with phosphoric acid), and the elute was received in a receptacle containing 150 μl 8.5% phosphoric acid. The contents were passed through a sterilized filter having a pore diameter of 0.2 μm for collection in bial.

| SMILES | incorporation into gliomacyte [1] | also measured |
| --- | --- | --- |
| NCCC(N)C(=O)O (stereo not drawn) [2,4-Diaminobutyric acid (DABA), 2,4-Diaminobutyric acid] | found to be incorporated into human or rat gliomacyte | – |
| N[C@@H](CCC(=O)O)C(=O)O [L-glutamic acid] | found to be incorporated into human or rat gliomacyte | – |
| NC(=O)CC[C@H](N)C(=O)O [L-glutamine] | found to be incorporated into human or rat gliomacyte | – |
| N[11CH2]C[C@H](N)C(=O)O [^11 C-labelled L-DABA, L-2,4-diaminobutyric acid (L-DABA) labelled with ^11 C] | – | uptake of radioactivity into the glioma cells [2]: dependent on the concentration of it in culture medium |
| N[C@@H](CC[11C](=O)O)C(=O)O [^11 C-labelled glutamic acid] | – | exothermic substance [3]: no exothermic substance was detected; sterility of product [3]: germ-free |
